The subject of one series is Staphylococcus aureus. The note with it: for Antimicrobial potency (%): relative to cephalexin control; for IC50: read-out: Concentration inhibiting 50% of bacterial growth (μM) (IC50). As to the method: At the indicated time points, aliquots were withdrawn and analyzed for their potency to arrest growth of Staphylococcus aureus. Bacterial growth was then evaluated by increased turbidity measured spectroscopically at 700 nm.

The test system of series [1] is experimental animal models. The note with it: cited from earlier work.
For another series, the system named is STZ-diabetic rats. The series can be described thus: Single subcutaneous administration to STZ-diabetic rats (blood glucose, daily weight gain). The note with it: single s.c. 1 mg; for Daily weight gain: followed seven days.
Series [2] deals with chymotrypsin and trypsin. The note with it: pH 7.4.
Experimental: (§1) Chymotrypsin and trypsin (0.5% w/w, of each) was then added. At the indicated time points aliquots were withdrawn and subjected to analytical HPLC procedure.
Series [3] deals with insulin receptor tyrosine kinase (Rattus norvegicus, UniProt P15127). The series is described as follows: Insulin receptor tyrosine kinase activity, [poly(Glu4Tyr)] phosphorylating assay (cell-free). Conditions: for Biological potency (%): of native insulin potency, before incubation, [poly(Glu4Tyr)] phosphorylating assay.
insulin receptor tyrosine kinase, sequence (P15127 27-759 limits assumed): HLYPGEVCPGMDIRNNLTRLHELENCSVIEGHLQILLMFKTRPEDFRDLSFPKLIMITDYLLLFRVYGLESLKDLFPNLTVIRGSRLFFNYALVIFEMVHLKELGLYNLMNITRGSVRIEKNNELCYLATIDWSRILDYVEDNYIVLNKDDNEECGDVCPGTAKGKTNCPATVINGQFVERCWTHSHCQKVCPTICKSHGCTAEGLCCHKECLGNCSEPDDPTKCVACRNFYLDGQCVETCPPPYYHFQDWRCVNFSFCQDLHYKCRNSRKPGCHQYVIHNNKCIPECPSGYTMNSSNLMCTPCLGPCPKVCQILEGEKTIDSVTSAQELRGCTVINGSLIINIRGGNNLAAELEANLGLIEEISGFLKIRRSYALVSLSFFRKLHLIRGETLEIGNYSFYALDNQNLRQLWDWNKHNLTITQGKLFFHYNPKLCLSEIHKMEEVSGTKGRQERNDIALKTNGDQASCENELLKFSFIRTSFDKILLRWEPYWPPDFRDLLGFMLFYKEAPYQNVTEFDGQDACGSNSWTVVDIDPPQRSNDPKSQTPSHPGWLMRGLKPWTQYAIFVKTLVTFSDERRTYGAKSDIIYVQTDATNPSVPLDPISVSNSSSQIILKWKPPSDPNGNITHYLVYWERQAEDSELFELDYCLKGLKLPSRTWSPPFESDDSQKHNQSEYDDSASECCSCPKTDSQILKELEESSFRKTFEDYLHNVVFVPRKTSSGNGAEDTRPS
insulin receptor tyrosine kinase, sequence (P15127 764-1383 partner limits assumed): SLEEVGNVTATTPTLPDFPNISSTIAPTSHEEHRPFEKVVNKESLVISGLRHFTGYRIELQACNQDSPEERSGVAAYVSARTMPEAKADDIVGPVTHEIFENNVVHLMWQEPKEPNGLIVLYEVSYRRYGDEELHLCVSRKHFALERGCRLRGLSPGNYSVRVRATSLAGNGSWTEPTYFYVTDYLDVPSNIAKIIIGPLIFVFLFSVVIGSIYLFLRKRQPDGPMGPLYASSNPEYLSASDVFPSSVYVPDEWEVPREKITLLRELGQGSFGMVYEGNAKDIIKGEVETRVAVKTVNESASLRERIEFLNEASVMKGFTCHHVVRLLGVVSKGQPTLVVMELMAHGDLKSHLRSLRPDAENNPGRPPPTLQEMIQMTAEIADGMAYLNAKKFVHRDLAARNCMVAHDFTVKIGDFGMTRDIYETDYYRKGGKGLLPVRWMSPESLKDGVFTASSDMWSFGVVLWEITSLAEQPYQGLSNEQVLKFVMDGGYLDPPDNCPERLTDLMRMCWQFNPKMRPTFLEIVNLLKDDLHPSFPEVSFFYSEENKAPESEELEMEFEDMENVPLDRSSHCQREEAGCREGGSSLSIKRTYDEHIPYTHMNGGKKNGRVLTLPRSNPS
Experimental: Briefly, the liver was homogenized in the presence of proteinase inhibitors, solubilized with 1% Triton X-100, and centrifuged. The supernatant was allowed to pass through a wheat-germ agglutinin (WGA)-agarose column (Sigma). Adsorbed insulin receptor portion was eluted with 0.3M N-acetyl-D-glucose amine in 50 mM HEPES buffer, pH 7.4, containing 0.1% Triton X-100, 10% glycerol, and 0.15M NaCl.
(iv) Receptor Tyrosine Kinase Activity Measurement
In this assay insulin activates its own receptor to phosphorylate a random copolymer containing L-glutamic acid and L-tyrosine at 4:1 molar ratio [Poly(Glu4Tyr)]SEQ ID NO:1. The standard enzyme assay mixture (final volume 60 μl in 50 mM Hepes, pH 7.4-0.1% Triton X-100) contained WGA purified insulin receptor (5μg protein), 20 mM MgCl2, 2 mM MnCl2, 100 μM ATP and varying concentrations (from 1 ng/ml to 10 mg/ml) of insulin or insulin derivative. Following a 30 min preincubation at 22° C., the reaction was initiated by adding Poly(Glu4Tyr) SEQ ID NO:1 (final concentration 0.7 mg/ml), it proceeded for 20 min at 22° C. and was terminated by adding EDTA (20 mM). Phosphotyrosine content in PolyGlu4Tyr was quantitated by a radio-immunoassay procedure using specific monoclonal antibodies to phosphotyrosine (final dilution 1: 100,000) and ^125I-BSA-phosphotyrosine conjugate.
Series [4] is classed as physicochemical. Conditions: pH 7.4, 37° C. As to the method:
(i.e. at physiological pH and body temperature). At the indicated time points aliquots were withdrawn for determining the biological potency relative to native insulin. Biological activities were evaluated by Insulin receptor tyrosine kinase activation (a cell free assay as described in Biological Procedures above, section (iv)) and by stimulation of lipogenesis in intact rat adipocytes as described in Biological Procedures, […].

Series [5] in a line: Solubility and appearance in aqueous buffer (pH 7.4).
The conditions of series [6]: background statement; cited from earlier work.
In series [7] the test system is chymotrypsin and trypsin. The series is described as follows: Proteolysis by a mixture of chymotrypsin and trypsin (analytical HPLC). The note with it: pH 7.4, 37° C., chymotrypsin and trypsin 0.5% w/w each.
Experimental: as §1
In a further series the test system is normal rats. The series is described as follows: Single intraperitoneal administration to normal rats, blood glucose levels. Format: in vivo. The note with it: single i.p. injection, 3 mg/rat.

Where two headings read alike, the source gives them in different places.

Experimental for STZ-diabetic rats: Diabetes was induced by a single intravenous injection of a freshly prepared solution of streptozotocin (55 mg/kg body weight) in 0.1M citrate buffer (pH 4.5) according to Meyerovitch et al., 1987.
Blood glucose levels and daily weight gains were followed over a period of seven days.
Group C (n=5) received the vehicle only (2.0 ml of 20% DMSO). Blood glucose levels were determined daily.
Experimental for normal rats: This assay reflects the post-subcutaneous long-acting feature of insulin (or insulin derivatives) within the circulation. Normal rats received a single intraperitoneal injection of native insulin, NPH-insulin and (Fmoc)2-insulin (3 mg/rat), and their blood glucose levels were monitored over a period of three days.
Blood glucose levels were followed for two days.

As for `CC1=C(C(=O)O)N2C(=O)[C@@H](NC(=O)[C@H](NC(=O)OCC3c4ccccc4-c4ccccc43)c3ccccc3)[C@H]2SC1` [Fmoc-cephalexin, N-Fmoc-cephalexin], the “Stability to hydrolysis by penicillinase” value in the series with penicillinase was “more stable to hydrolysis by penicillinase than the parent compound”. Also, the “Antimicrobial potency (%)” value in the series with Staphylococcus aureus (after 1 day at pH 7.4, 37° C.) is reported as 10%; with Staphylococcus aureus (after 3 days at pH 7.4, 37° C.) it was 59%; with Staphylococcus aureus (after 6 days at pH 7.4, 37° C.) it was 100%; in the series with Staphylococcus aureus (after 6 days at pH 7.4, 37° C., listed as N-Fmoc-cephalexin) it was “about 50%”; in the series on Staphylococcus aureus (no incubation), about 6%. Besides, the “Stability upon incubation” value in the series with Staphylococcus aureus (pH 7.4, 37° C.) is reported as “significantly more stable”. The IC50 in the series with Staphylococcus aureus (after 1 day at pH 7.4, 37° C.) was determined as 15 µM; in the series with Staphylococcus aureus (after 3 days at pH 7.4, 37° C.), 9 µM; in the series on Staphylococcus aureus (after 6 days at pH 7.4, 37° C.) it was 4.5 µM; in the series on Staphylococcus aureus (no incubation), 23 µM.
With `CC(C)C[C@H](NC(=O)OCC1c2ccccc2-c2ccccc21)C(=O)O` [Fmoc-leucine], in series [1], the Index of toxicity result was “low index of toxicity”.
Regarding “Gly^A1, Phe^B1, Lys^B29-N-(Fmoc)3-insulin”, the “Solubility in aqueous buffer (pH 7.4, mg/ml)” value was “˜0.2 mg/ml”. Moreover, in the series on STZ-diabetic rats (STZ rats), the “Delayed onset of antidiabetic action” value is on record as “approximately two days”, the “Duration of antidiabetic action” value was “four days” and the Daily weight gain was determined as 1.43±0.14 g/rat/day. For the same compound, the “Circulating glucose level lower than in native insulin group” value in the series with STZ-diabetic rats (day two up to day six) is 90 to 110 mg/dL. For the same compound, in the series on chymotrypsin and trypsin [2], the “Resistance to proteolysis” value is “highly resistant to proteolysis”. The “Biological potency (%)” value in [3] (listed as N-(Fmoc)3-insulin Gly^A1, Lys^B29, Phe^B1) is on record as under 1%. For the same compound, the “Biological potency (%)” value in series [3] (listed as tri-N-Fmoc-insulin) is reported as under 1%. In addition, the “Lag period of activation” value in series [4] was “six day lag period”. For the same compound, the “Appearance in aqueous buffer (pH 7.4)” value in series [5] was “very cloudy”.
In the case of “Native insulin: Human insulin, native hormone; parent drug and reference”, in the series on STZ-diabetic rats (STZ rats), the Daily weight gain was 0.57±0.08 g/rat/day. The Half-life in plasma in series [6] was 5 to 6 min. For the same compound, the “Biological potency following incubation (2 days, 37° C., pH 8.5)” value in [3] (after 2 days, 37° C., pH 8.5) is given as 100. For the same compound, the “Biological potency (%)” value in series [3] is on record as 100%. The “Concentration for half maximal effect” value in [3] (receptor tyrosine kinase assay) is 20 ± 3 ng/mL. Further, in series [5], the “Appearance in aqueous buffer (pH 7.4)” value is on record as “clear” and the “Solubility in aqueous buffer (pH 7.4, mg/ml)” value is reported as “˜4 or higher mg/ml”. In addition, the “Proteolysis t½” value in the series on chymotrypsin and trypsin [7] stood at 30 min. Moreover, in the series on normal rats, the “Period of hypoglycemia / reduced blood glucose” value is “about 12 hours” and the “Recovery from hypoglycemia, t½” value turned out to be 480 min.

(Values after patent publication US6504005B1, “Long-acting drugs and pharmaceutical compositions comprising them” (Yeda Research and Development Co. Ltd., priority 1996, dated 2003).)
